Source: US20240425491A1, “HETEROARYL COMPOUNDS USEFUL IN THE TREATMENT OF COGNITIVE DISORDERS” (University College Cardiff Consultants Limited, priority 2021, published 2024)

Legend:
[1] = target: T1, human recombinant GABAAR containing α5β3γ2 subunits (benzodiazepine site) (Homo sapiens, UniProt P18507+P31644); test: In vitro radioligand binding assay (α5-GABAAR Ki); details: inhibition of [3H]Ro15-1788 binding, membranes of L(tk−) cells expressing human α5β3γ2; read-out: α5-GABAAR Ki
T1 construct: expressed in transfected cells; host or cells: mouse L(tk−) cells, dexamethasone-inducible vector pMSGneo
Summary of the method: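 Membranes from mouse L(tk^−) cells stably expressing human α5β3γ2 GABAAR incubated 1 h at 4° C with 4 nM [^3H]Ro15-1788 and test compound; nonspecific binding with 1 μM TP003. Filter-bound radioactivity counted; Ki from IC50 by Cheng-Prusoff using measured Kd.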

[2] = target: T2, human α5β3γ2 GABAARs in mouse L(tk−) cells (Homo sapiens, UniProt P18507+P31644); test: In vitro electrophysiological recording assay (α5-GABAAR relative efficacy), QPatch; format: cell-based; details: GABA EC10-20
T2 construct: expressed in transfected cells; host or cells: mouse L(tk−) cells, dexamethasone-inducible vector pMSGneo
Text: Mouse L(tk^−) cells stably expressing human α1β3γ2, α2β3γ2, α3β3γ2, α5β3γ2 GABAARs generated by transfection of the individual subunits in the dexamethasone-inducible expression vector pMSGneo in mouse L(tk^−) cells (Hadingham et al., 1993, Mol. Pharmacol. 43:970-975 and 1993, Mol. Pharmacol. 44:1211-1218) were used for binding and functional assays. For certain compounds, HEK293 cells stable expressing the human α1β3γ2L, α2β3γ2L, α3β3γ2L and α5β3γ2L GABAA receptors were used to evaluate their functional effects in a SyncroPatch electrophysiology assay.
For QPatch electrophysiology testing, 1 μM dexamethasone was added to the culture medium of L(tk^−) cells 24 hours before the recordings were performed. Cells were typically used for electrophysiology experiments 72-96 hours after splitting.
The efficacy of modulators was evaluated using either the automated patch-clamp platform QPatch16 (Sophion, Copenhagen, Denmark) or the SyncroPatch 384i (Nanion Technologies, Germany). Cells were harvested from flasks by enzymatic dissociation and re-suspended in serum-free medium.
For QPatch recordings, all experiments were carried out at room temperature (20-22° C.) using a standard whole cell procedure and physiological solutions. Gigaseals were formed upon execution of a combined suction/voltage protocol with subsequent increased suction leading to the whole-cell configuration. The currents recorded were acquired at 1 KHz and filtered at 0.3 KHz using a Bessel filter. Whole-cell currents were measured at a holding potential of −65 mV.
For QPatch recordings, the extracellular solution contained of (in mM): 145 NaCl, 4 KCl, 1 MgCl2, 2CaCl2, 10 HEPES, 10 D-glucose (pH 7.4), and the intracellular solution consisted of (in mM): 96 KCl, 28 CsCl, 25 KOH, 4.3 CaCl2), 1.4 MgCl2, 10 EGTA, HEPES, 3 MgATP (pH 7.2). The osmolarities of the extracellular and intracellular solutions were 305 and 295 mOsm respectively.
The effects of modulators were evaluated in the presence of a submaximal GABA concentration, giving typically 10-20% activation (GABA EC10-20) of the response elicited by a saturating GABA concentration. For QPatch recordings, to check and ensure baseline current stability before compound addition, five consecutive applications of GABA EC10-20 alone (each application with a 2 s duration, separated by minimum 1 min wash off periods) were performed before compound addition. The test compound was applied using the pipetting system of the QPatch system 1 min at least prior to co-application with GABA EC10-20. For SyncroPatch recordings, GABA EC20 alone was applied three times (1 s long applications, with wash steps in-between) before compound addition. This was followed by a 1-2 min pre-incubation with the test compound and then re-application of GABA EC10-20 in the presence of the compound. Finally, following a further wash step, a saturating concentration of GABA was applied, allowing the accurate evaluation for each cell of the percentage baseline activation elicited by the submaximal GABA applied.
The compounds were first dissolved in DMSO as a 10 mM stock and then further diluted to the testing concentrations so that the final DMSO concentration in the extracellular recording solution was kept constant at 0.1% for the QPatch recordings, or 0.2% for the SyncroPatch recordings.
The % efficacy of modulators was determined from the GABA elicited currents recorded in the presence and absence of the test compound, using the formula:
[((compound peak current−leak)−(GABA peak current−leak))/(GABA peak current−leak)]*100,
where ‘leak’ is the leak baseline current at −65 mV, ‘compound peak current’ is the current elicited by co-application of compound and GABA, and ‘GABA peak current’ is the current elicited by GABA alone during the 5th GABA application. The results were presented as ‘relative efficacy’ for each compound generally at a concentration equal or higher than 100 times their determined Ki. […]

T2 sequence (P31644 32-462): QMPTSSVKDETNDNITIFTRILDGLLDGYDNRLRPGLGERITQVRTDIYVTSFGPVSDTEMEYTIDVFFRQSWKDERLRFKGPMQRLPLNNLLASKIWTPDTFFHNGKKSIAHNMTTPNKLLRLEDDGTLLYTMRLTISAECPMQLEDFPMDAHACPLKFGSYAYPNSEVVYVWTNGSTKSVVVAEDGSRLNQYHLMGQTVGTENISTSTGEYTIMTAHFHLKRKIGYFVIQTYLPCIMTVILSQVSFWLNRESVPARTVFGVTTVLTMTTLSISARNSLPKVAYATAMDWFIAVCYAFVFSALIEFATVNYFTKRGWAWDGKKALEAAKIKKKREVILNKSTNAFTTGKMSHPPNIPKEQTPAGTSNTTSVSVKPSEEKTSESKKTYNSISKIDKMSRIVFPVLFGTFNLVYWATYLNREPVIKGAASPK
T2 sequence (P28472 26-473 partner): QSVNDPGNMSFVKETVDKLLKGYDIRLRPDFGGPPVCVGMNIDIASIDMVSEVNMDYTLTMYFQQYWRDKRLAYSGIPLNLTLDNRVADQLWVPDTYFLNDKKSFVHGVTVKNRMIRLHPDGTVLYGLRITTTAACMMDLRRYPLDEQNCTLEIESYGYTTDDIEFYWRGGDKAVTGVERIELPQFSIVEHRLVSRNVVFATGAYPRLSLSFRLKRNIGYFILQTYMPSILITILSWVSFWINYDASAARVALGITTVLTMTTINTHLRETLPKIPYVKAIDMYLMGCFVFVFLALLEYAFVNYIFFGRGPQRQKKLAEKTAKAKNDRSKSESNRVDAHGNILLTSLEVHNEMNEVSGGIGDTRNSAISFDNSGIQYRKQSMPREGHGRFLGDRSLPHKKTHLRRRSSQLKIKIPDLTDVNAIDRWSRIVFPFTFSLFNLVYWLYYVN
T2 sequence (P18507 40-475): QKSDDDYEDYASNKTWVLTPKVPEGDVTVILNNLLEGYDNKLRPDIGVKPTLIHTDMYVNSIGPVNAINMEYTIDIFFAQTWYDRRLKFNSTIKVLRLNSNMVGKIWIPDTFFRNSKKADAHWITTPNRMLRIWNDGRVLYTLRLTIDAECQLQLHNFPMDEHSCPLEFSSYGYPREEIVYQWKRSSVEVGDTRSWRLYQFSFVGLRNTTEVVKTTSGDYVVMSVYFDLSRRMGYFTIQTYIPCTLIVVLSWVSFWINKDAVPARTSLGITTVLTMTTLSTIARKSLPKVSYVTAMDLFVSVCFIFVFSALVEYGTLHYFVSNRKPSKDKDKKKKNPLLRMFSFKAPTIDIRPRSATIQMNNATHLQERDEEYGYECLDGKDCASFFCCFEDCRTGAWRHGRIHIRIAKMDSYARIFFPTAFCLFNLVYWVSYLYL
T1 sequence (P31644 32-462): as the sequence (P31644 32-462) above
T1 sequence (P28472 26-473 partner): as the sequence (P28472 26-473 partner) above
T1 sequence (P18507 40-475): as the sequence (P18507 40-475) above

Row | Ki [1] | α5-GABAAR Relative Efficacy (to DMCM), Qpatch ([2]; Conc 1 μM) | α5-GABAAR Relative Efficacy (to DMCM), Qpatch ([2]; Conc 0.3 μM) | α5-GABAAR Relative Efficacy (to DMCM), Qpatch ([2]; Conc 3 μM) | Structure (SMILES)
1 | 8 nM | −0.68 |  |  | COc1nc(-c2cn[nH]c2)ccc1NC(=O)c1c(-c2ccccc2)noc1C [Example 26, N-[2-Methoxy-6-(1H-pyrazol-4-yl)-3-pyridyl]-5-methyl-3-phenyl-isoxazole-4-carboxamide]
2 | 2.3 nM |  | −0.83 |  | COc1nc(-c2ccc(CO)nc2)ccc1NC(=O)c1c(-c2ccccc2)noc1C [Example 27, N-[6-[6-(Hydroxymethyl)-3-pyridyl]-2-methoxy-3-pyridyl]-5-methyl-3-phenyl-isoxazole-4-carboxamide]
3 | 5.2 nM | −0.61 |  |  | COc1nc(-c2ccc(=O)n(C)c2)ccc1NC(=O)c1c(-c2ccccc2)noc1C [Example 28, N-[2-Methoxy-6-(1-methyl-6-oxo-3-pyridyl)-3-pyridyl]-5-methyl-3-phenyl-isoxazole-4-carboxamide]
4 | 1.5 nM |  | −0.53 |  | COc1cc(-c2cccc3nccn23)cnc1NC(=O)c1c(-c2ccccc2)noc1C [Example 29, N-(5-Imidazo[1,2-a]pyridin-5-yl-3-methoxy-2-pyridyl)-5-methyl-3-phenyl-isoxazole-4-carboxamide]
5 | 5.1 nM | −0.42 |  |  | COc1nc(-c2cccc3nccn23)ccc1NC(=O)c1c(-c2ccccc2)noc1C [Example 30, N-(6-Imidazo[1,2-a]pyridin-5-yl-2-methoxy-3-pyridyl)-5-methyl-3-phenyl-isoxazole-4-carboxamide]
6 | 15.8 nM |  |  | −0.50 | COc1nc(-c2ccc3[nH]nc(N)c3c2)ccc1NC(=O)c1c(-c2ccccc2)noc1C [Example 33, N-[6-(3-Amino-1H-indazol-5-yl)-2-methoxy-3-pyridyl]-5-methyl-3-phenyl-isoxazole-4-carboxamide]
7 | 2.8 nM |  | −0.56 |  | COc1nc(-c2cccnc2)ccc1NC(=O)c1c(-c2ccccc2)noc1C [Example 37, N-(6-Methoxy-[2,3′-bipyridin]-5-yl)-5-methyl-3-phenylisoxazole-4-carboxamide]
8 | 6.9 nM | −0.57 |  |  | COc1nc(-c2cncc(N)n2)ccc1NC(=O)c1c(-c2ccccc2)noc1C [Example 40, N-[6-(6-Aminopyrazin-2-yl)-2-methoxy-3-pyridyl]-5-methyl-3-phenyl-isoxazole-4-carboxamide]
9 | 1.8 nM |  | −0.87 |  | COc1ncc(-c2ccc(NC(=O)c3c(-c4ccccc4)noc3C)c(OC)n2)cn1 [Example 41, N-(2-Methoxy-6-(2-methoxypyrimidin-5-yl)pyridin-3-yl)-5-methyl-3-phenyl-isoxazole-4-carboxamide]
10 | 2.8 nM |  | −0.60 |  | COc1nc(-c2ccncc2)ccc1NC(=O)c1c(-c2ccccc2)noc1C [Example 42, N-(6-Methoxy-[2,4′-bipyridin]-5-yl)-5-methyl-3-phenylisoxazole-4-carboxamide]
11 | 3.6 nM | −0.69 |  |  | COc1nc(-n2ccnc2)cnc1NC(=O)c1c(-c2ccccc2)noc1C [Example 44, N-(5-Imidazol-1-yl-3-methoxy-pyrazin-2-yl)-5-methyl-3-phenyl-isoxazole-4-carboxamide]
12 | 1.2 nM |  | −0.65 |  | COc1nc(-c2cnc(N(C)C)nc2)ccc1NC(=O)c1c(-c2ccccc2)noc1C [Example 45, N-(6-(2-(Dimethylamino)pyrimidin-5-yl)-2-methoxypyridin-3-yl)-5-methyl-3-phenylisoxazole-4-carboxamide]
13 | 4.4 nM | −0.69 |  |  | COc1nc(-n2cncn2)ccc1NC(=O)c1c(-c2ccccc2)noc1C [Example 46, N-[2-Methoxy-6-(1,2,4-triazol-1-yl)-3-pyridyl]-5-methyl-3-phenyl-isoxazole-4-carboxamide]
14 | 2.7 nM |  | −0.90 |  | CCOc1ncc(-c2ccc(NC(=O)c3c(-c4ccccc4)noc3C)c(OC)n2)cn1 [Example 48, N-[6-(2-Ethoxypyrimidin-5-yl)-2-methoxy-3-pyridyl]-5-methyl-3-phenyl-isoxazole-4-carboxamide]
15 | 7.9 nM | −0.83 |  |  | COc1nc(-c2ccc3[nH]nnc3c2)ccc1NC(=O)c1c(-c2ccccc2)noc1C [Example 49, N-[6-(1H-Benzotriazol-5-yl)-2-methoxy-3-pyridyl]-5-methyl-3-phenyl-isoxazole-4-carboxamide]
16 | 9.6 nM | −0.74 |  |  | COc1nc(-c2cccc3nc(N)nn23)ccc1NC(=O)c1c(-c2ccccc2)noc1C [Example 50, N-[6-(2-Amino-[1,2,4]triazolo[1,5-a]pyridin-5-yl)-2-methoxy-3-pyridyl]-5-methyl-3-phenyl-isoxazole-4-carboxamide]
17 | 9.8 nM | −0.49 |  |  | COc1nc(-c2ncnn2C)ccc1NC(=O)c1c(-c2ccccc2)noc1C [Example 52, N-[2-Methoxy-6-(2-methyl-1,2,4-triazol-3-yl)-3-pyridyl]-5-methyl-3-phenyl-isoxazole-4-carboxamide]
18 | 7.4 nM | −0.55 |  |  | COc1nc(-c2nccnc2N)ccc1NC(=O)c1c(-c2ccccc2)noc1C [Example 54, N-[6-(3-Aminopyrazin-2-yl)-2-methoxy-3-pyridyl]-5-methyl-3-phenyl-isoxazole-4-carboxamide]
19 | 2.3 nM |  | −0.64 |  | COc1nc(-c2cncnc2)cnc1NC(=O)c1c(-c2ccccc2)noc1C [Example 56, N-(3-Methoxy-5-(pyrimidin-5-yl)pyrazin-2-yl)-5-methyl-3-phenylisoxazole-4-carboxamide]
20 | 1.5 nM |  | −0.57 |  | COc1nc(-c2ccc3nc(N)nn3c2)ccc1NC(=O)c1c(-c2ccccc2)noc1C [Example 57, N-[6-(2-Amino-[1,2,4]triazolo[1,5-a]pyridin-6-yl)-2-methoxy-3-pyridyl]-5-methyl-3-phenyl-isoxazole-4-carboxamide]
21 | 18.1 nM |  |  | −0.79 | COc1nc(-c2nnco2)ccc1NC(=O)c1c(-c2ccccc2)noc1C [Example 58, N-[2-Methoxy-6-(1,3,4-oxadiazol-2-yl)-3-pyridyl]-5-methyl-3-phenyl-isoxazole-4-carboxamide]
22 | 10.4 nM |  |  | −0.75 | COc1nc(-c2cnc(OCC(F)(F)F)nc2)ccc1NC(=O)c1c(-c2ccccc2)noc1C [Example 59, N-[2-Methoxy-6-[2-(2,2,2-trifluoroethoxy)pyrimidin-5-yl]-3-pyridyl]-5-methyl-3-phenyl-isoxazole-4-carboxamide]
23 | 1.3 nM |  | −0.92 |  | COc1nc(-c2cnc(C(=O)O)nc2)ccc1NC(=O)c1c(-c2ccccc2)noc1C [Example 60, 5-[6-Methoxy-5-[(5-methyl-3-phenyl-isoxazole-4-carbonyl)amino]-2-pyridyl]pyrimidine-2-carboxylic acid]
